Measured values as given in patent publication US8658565B2 (priority 2010, dated 2014).
Read-outs that look alike come from different tables or passages of the source.

Columns and labels:
Assay type in all cases: in vivo
[1] = test system: Sphaerotheca fuliginea; assay: Sphaerotheca test (cucumbers)/preventive, Example F: biological control agent sprayed first, (I-1) 4 h later; conditions: (I-1) alone 50 ppm a.i., evaluated 7 days after inoculation
Method: (§1) To produce a suitable preparation of active compound, 1 part by weight of the dithiino-tetracarboximide is mixed with 24.5 parts by weight of acetone, 24.5 parts by weight of dimethylacetamide and 1 part by weight of emulsifier alkylaryl polyglycol ether. The concentrate is diluted with water to the desired concentration.
(§2) Serenade® WPO, a wettable powder formulation containing the bacteria Bacillus subtilis (variety QST 713), is mixed and diluted with water to the desired concentration.
(§3) Young plants are sprayed with the aqueous preparation of the biological control agents, e.g. Serenade® WPO, at the stated rate of application. 4 hours later and after the spray coating has dried on, the plants are sprayed with the preparation of (I-1) 2,6-dimethyl-1H,5H-[1,4]dithiino[2,3-c:5,6-c′]dipyrrole-1,3,5,7(2H,6H)-tetrone at the stated rate of application. The next day the plants are inoculated with an aqueous spore suspension of Sphaerotheca fuliginea. The plants are then placed in a greenhouse at approximately 23° C. and a relative atmospheric humidity of approximately 70%. The test is evaluated 7 days after the inoculation. 0% means an efficacy which corresponds to that of the untreated control, while an efficacy of 100% means that no disease is observed.

[2] = test system: Venturia inaequalis; assay: Venturia test (apples)/preventive, Example C: (I-1) sprayed first, biological control agent 4 h later; conditions: (I-1) alone 25 ppm a.i., evaluated 10 days after inoculation
Method: as §1, §2
Young plants are sprayed with the preparation of (I-1) 2,6-dimethyl-1H,5H-[1,4]dithiino[…]dipyrrole-1,3,5,7(2H,6H)-tetrone at the stated rate of application. 4 hours later and after the spray coating has dried on, the plants are sprayed with the aqueous preparation of the biological control agents, e.g. Serenade® WPO, at the stated rate of application. The next day the plants are inoculated with an aqueous conidia suspension of the causal agent of apple scab (Venturia inaequalis) and then remain for 1 day in an incubation cabinet at approximately 20° C. and a relative atmospheric humidity of 100%. The plants are then placed in a greenhouse at approximately 21° C. and a relative atmospheric humidity of approximately 90%. The test is evaluated 10 days after the inoculation. […]

[3] = test system: Venturia inaequalis; assay: Venturia test (apples)/preventive, Example G: biological control agent sprayed first, (I-1) 4 h later; conditions: (I-1) alone 12.5 ppm a.i., evaluated 10 days after inoculation
Method: as §1, §2
Young plants are sprayed with the aqueous preparation of the biological control agents, e.g. Serenade® WPO, at the stated rate of application. 4 hours later and after the spray coating has dried on, the plants are sprayed with the preparation of (I-1) 2,6-dimethyl-1H,5H-[1,4]dithiino[2,3-c:5,6-c′]dipyrrole-1,3,5,7(2H,6H)-tetrone at the stated rate of application. The next day the plants are inoculated with an aqueous conidia suspension of the causal agent of apple scab (Venturia inaequalis) and then remain for 1 day in an incubation cabinet at approximately 20° C. and a relative atmospheric humidity of 100%. The plants are then placed in a greenhouse at approximately 21° C. and a relative atmospheric humidity of approximately 90%. The test is evaluated 10 days after the inoculation. […]

[4] = test system: Alternaria solani; assay: Alternaria test (tomatoes)/preventive, Example H: biological control agent sprayed first, (I-1) 4 h later; conditions: (I-1) alone 25 ppm a.i., evaluated 3 days after inoculation
Method: as §1, §2
as §3, with “of Alternaria solani.” for “of Sphaerotheca fuliginea.”, “in an incubation cabinet” for “in a greenhouse”, “approximately 20°” for “approximately 23°”, “of 100%.” for “of approximately 70%.”, “evaluated 3” for “evaluated 7”, “untreated control” for “untreated control,”

[5] = test system: Botrytis cinerea; assay: Botrytis test (beans)/preventive, Example I: biological control agent sprayed first, (I-1) 4 h later; conditions: (I-1) alone 12.5 ppm a.i., lesion size evaluated 2 days after inoculation
Method: as §1
BioNem WP®, a wettable powder formulation containing the bacteria Bacillus firmus, is mixed and diluted with water to the desired concentration.
Young plants are sprayed with the aqueous preparation of the biological control agents, e.g. BioNem WP®, at the stated rate of application. 4 hours later and after the spray coating has dried on, the plants are sprayed with the preparation of (I-1) 2,6-dimethyl-1H,5H-[1,4]dithiino[2,3-c:5,6-c′]dipyrrole-1,3,5,7(2H,6H)-tetrone at the stated rate of application. The next day the plants are inoculated by placing 2 small pieces of agar covered with growth of Botrytis cinerea on each leaf. The inoculated plants are placed in a darkened chamber at 20° C. and a relative atmospheric humidity of 100%. 2 days after the inoculation, the size of the lesions on the leaves is evaluated. 0% means an efficacy which corresponds to that of the untreated control, while an efficacy of 100% means that no disease is observed.

[6] = test system: Sphaerotheca fidiginea; assay: Sphaerotheca test (cucumbers)/preventive, Example B: (I-1) sprayed first, biological control agent 4 h later; conditions: (I-1) alone 50 ppm a.i., evaluated 7 days after inoculation
Method: as §1, §2
Young plants are sprayed with the preparation of (I-1) 2,6-dimethyl-1H,5H-[1,4]dithiino[…]dipyrrole-1,3,5,7(2H,6H)-tetrone at the stated rate of application. 4 hours later and after the spray coating has dried on, the plants are sprayed with the aqueous preparation of the biological control agents, e.g. Serenade® WPO, at the stated rate of application. The next day the plants are inoculated with an aqueous spore suspension of Sphaerotheca fidiginea. The plants are then placed in a greenhouse at approximately 23° C. and a relative atmospheric humidity of approximately 70%. The test is evaluated 7 days after the inoculation. 0% means an efficacy which corresponds to that of the untreated control, while an efficacy of 100% means that no disease is observed.

[7] = test system: Phytophthora infestans; conditions: tomatoes; (I-1) alone 50 ppm a.i.; evaluated 3 days after inoculation
[8] = test system: Phytophthora infestans; conditions: tomatoes, evaluated 3 days after inoculation
[9] = test system: Alternaria solani; assay: Alternaria test (tomatoes)/preventive, Example D: (I-1) sprayed first, biological control agent 4 h later; conditions: (I-1) alone 25 ppm a.i., evaluated 3 days after inoculation
Method: as §1
Shemer, a water dispersible granule formulation containing the yeast Metschnikowia fructicola, is mixed and diluted with water to the desired concentration.
Young plants are sprayed with the preparation of (I-1) 2,6-dimethyl-1H,5H-[1,4]diithiino[2,3-c:5,6-c′]dipyrrole-1,3,5,7(2H,6H)-tetrone at the stated rate of application. 4 hours later and after the spray coating has dried on, the plants are sprayed with the aqueous preparation of the biological control agents, e.g. Shemer, at the stated rate of application. The next day the plants are inoculated with an aqueous spore suspension of Alternaria solani. The plants are then placed in an incubation cabinet at approximately 20° C. and a relative atmospheric humidity of 100%. The test is evaluated 3 days after the inoculation. 0% means an efficacy which corresponds to that of the untreated control while an efficacy of 100% means that no disease is observed.

In the case of `Cn1c(=O)c2sc3c(=O)n(C)c(=O)c3sc2c1=O` [(I-1), 2,6-dimethyl-1H,5H-[1,4]dithiino[2,3-c:5,6-c′]dipyrrole-1,3,5,7(2H,6H)-tetrone], the “Efficacy in % found” value [1] was 0%, the “Efficacy in % found” value [2] was 49% and the “Efficacy in % found” value [3] was 48%. For the same molecule, the “Efficacy in % found” value [4] was 21%, the “Efficacy in % found” value [5] was 4% and the “Efficacy in % found” value [6] was 0%. For the same molecule, the “Efficacy in % found” value [7] was 84%, the “Efficacy in % found” value ([8]; (I-1) alone 12.5 ppm a.i.) was 15% and the “Efficacy in % found” value ([8]; (I-1) alone 25 ppm a.i.) was 40%. The “Efficacy in % found” value [9] was 35%.
